Data on three compounds can be found in patent US6028068A, “Substituted 6H-1,3,4-thiadiazine-2-amines, the use thereof as anaesthetising, cardiovascular and hypometabolic agents, and a pharmaceutical composition containing them” (The Procter & Gamble Company, priority 1999, dated 2000).

The structures appear in SMILES notation. Counter-ions that a name gives are not always drawn.

Data set [1] can be described thus: Rectal (body) temperature in mice. The format is in vivo, mice (BALB line). The conditions noted are these: for Body temperature (T): Table 2, 390 mg/kg (1.0 mM/kg; 1/2 LD16). On the procedure: (§1) In all cases trials were carried out on mice of the BALB line of 3-4 month age. […] In the case of water-soluble compounds aqueous solutions of the test compounds were injected intraperitoneally (i.p.), while water-insoluble compounds were introduced orally (p.o.).
(§2) Rectal temperature changes (absolute magnitudes in ° C.) were measured using a medicinal electrothermometer TREM-1 (Table 1). […] The data on oxygen consumption are given an percents relative to the starting content of oxygen taken as 100 (Table 2).

The nature of data set [2]: Observed behavioural effects in mice after introduction. The class given is in vivo, mice (BALB line). To be noted: intraperitoneally. The method, then:
In all cases trials were carried out on mice of the BALB line of 3-4 month age. Non-toxic doses of compounds under test, varying from 60 to 400 mg/kg, were used in all experiments. In the case of water-soluble compounds aqueous solutions of the test compounds were injected intraperitoneally (i.p.), while water-insoluble compounds were introduced orally (p.o.).
(§3) Compound 1 was dissolved in a twin-water 1:9 (concentration of saturated solution was 40 mg/ml) and introduced intraperitoneally at the rate of 0.2 ml per 20 g of mouse weight.

Data set [3] is described as follows: Rectal temperature in rats. The format is in vivo.
A short description of data set [4]: Oxygen consumption in mice (closed testing unit, gas analyzer MN 5130). The conditions noted are these: for Lowering of oxygen consumption: relative to initial value; for Consumption of oxygen (O2): relative to starting content taken as 100, 390 mg/kg (1.0 mM/kg; 1/2 LD16), mice. The format is in vivo, mice (BALB line). The method, then: as §1, §2
A further data set is described as follows: physchem. The format is physicochemical. The conditions noted are these: twin-water 1:9. The method, then:
as §3

Data set [5] is described as follows: Lethal dose determination (LD16, LD50, LD84) in mice. To be noted: mouse, in vivo, ip.

As to `CCOC(=O)C(=NOC)C1=NN=C(N2CCOCC2)SC1` [Compound 2, Ethyl-1-methoxyimino-1-(2-morpholino-6H-1,3,4-thiadiazine-5-yl)acetate, mesylate], the Body temperature stood at 38.5 °C in data set [1] (410.0 mg/kg (1.0 mM/kg) i.p., 0 minutes); 31.9 °C in data set [1] (410.0 mg/kg (1.0 mM/kg) i.p., 30 minutes); 32.8 °C in data set [1] (410.0 mg/kg (1.0 mM/kg) i.p., 60 minutes); 35.3 °C in data set [1] (410.0 mg/kg (1.0 mM/kg) i.p., 90 minutes); 36.4 °C in data set [1] (410.0 mg/kg (1.0 mM/kg) i.p., 120 minutes); 37.6 °C in data set [1] (410.0 mg/kg (1.0 mM/kg) i.p., 180 minutes). The Body temperature in data set [1] (410.0 mg/kg (1.0 mM/kg) i.p., 240 minutes) is 38.8 °C.

Regarding `CCOC(=O)C(=NOC)C1=NN=C(N2CCSCC2)SC1` [Compound 4, Ethyl-1-methoxyimino-1-(2-thiomorpholino-6H-1,3,4-thiadiazine-5-yl)acetate, mesylate], the Body temperature in data set [1] (166.0 mg/kg (0.39 mM/kg) i.p., 0 minutes) turned out to be 38.1 °C; in data set [1] (166.0 mg/kg (0.39 mM/kg) i.p., 30 minutes), 33.9 °C; in data set [1] (166.0 mg/kg (0.39 mM/kg) i.p., 60 minutes), 34.9 °C; in data set [1] (166.0 mg/kg (0.39 mM/kg) i.p., 120 minutes) it was 35.7 °C; in data set [1] (166.0 mg/kg (0.39 mM/kg) i.p., 180 minutes) it was 37.4 °C.

Turning to `CCOC(=O)C(=NOC)C1=NN=C(N2CCOCC2)SC1` [Compound 1, Ethyl-1-methoxyimino-1-(2-morpholino-6H-1,3,4-thiadiazine-5-yl)acetate, hydrobromide], the “Effects of introduction” value in data set [2] is “akiriesia, suppression of reflexes to external disturbance, lateral state of mice”. Moreover, the “Fall of rectal temperature” value is 3-4 °C in data set [3] (10 minutes after introduction), “about 5 °C” in data set [3] (after 30 minutes), 3-4 °C in data set [1] (10 minutes after introduction) and 7-8 °C in data set [1] (after 30 minutes). Further, the “Restoration of oxygen consumption” value in data set [4] (Table 2, mice) was “Full restoration of oxygen consumption was not observed”. The “Lowering of oxygen consumption” value is on record as 2 fold in data set [4] (at the fourth hour), 7-10 fold in data set [4] (during the first hour) and 3-4 fold in data set [4] (for the next 2 hours). The “Consumption of oxygen (O2)” value amounted to 100 percents in data set [4] (0 minutes); 8.1 percents in data set [4] (5 minutes); 0.1 percents in data set [4] (15 minutes); 0.2 percents in data set [4] (30 minutes); 12.0 percents in data set [4] (60 minutes); 27.0 percents in data set [4] (90 minutes). Besides, the entries for the “Consumption of oxygen (O2)” value in data set [4] (120 minutes), in data set [4] (180 minutes) and in data set [4] (240 minutes) were 26.0 percents, 28.0 percents and 59.0 percents, respectively. This compound gave a solubility in the data set “physchem” of 40 mg/mL. This compound also displayed an LD16 in data set [5] of 788.4 mg/kg. Further, the LD50 in data set [5] is 830 mg/kg. For the same compound, the LD84 in data set [5] is 881.5 mg/kg. Also, in data set [1], the “Time to maximum temperature drop” value was in the range of 90 to 120 min. Further, the Body temperature in data set [1] (391.7 mg/kg (1.0 mM/kg) i.p., 0 minutes) amounted to 37.9 °C; in data set [1] (391.7 mg/kg (1.0 mM/kg) i.p., 30 minutes), 29.6 °C; in data set [1] (391.7 mg/kg (1.0 mM/kg) i.p., 60 minutes) it was 26.5 °C; in data set [1] (391.7 mg/kg (1.0 mM/kg) i.p., 90 minutes), 24.8 °C; in data set [1] (391.7 mg/kg (1.0 mM/kg) i.p., 120 minutes), 24.6 °C; in data set [1] (391.7 mg/kg (1.0 mM/kg) i.p., 180 minutes), 32.6 °C. Further, the Body temperature in data set [1] (391.7 mg/kg (1.0 mM/kg) i.p., 240 minutes) was 34.6 °C; in data set [1] (391.7 mg/kg (1.0 mM/kg) i.p., 300 minutes) it was 35.9 °C. The “Body temperature (T)” value is 33.5 °C in data set [1] (5 minutes) and 31.2 °C in data set [1] (15 minutes). The same compound yielded a Temperature difference in data set [1] (after five hours) of 2 °C. The “Drop of body temperature” value in data set [1] (introduced intraperitoneally) is “drop of body temperature”. Further, the Maximum temperature drop in data set [1] (reached in 90-120 minutes) was 12-13 °C.
